Assay [1] concerns HUVEC. As to the kind of experiment: HUVEC growth inhibition assay (NCI). It counts as cell-based, human. The following applies: 72 h, crystal violet. The method, then:
Angiogenesis assays were provided by the NCI, details of the assay protocols are given below. In each assays TNP-470 and paclitaxel (Taxol®) were used as reference compounds. HUVEC (1.5×10^3) were plated in a 96-well plate in 100 μL of EBM-2 (Clonetic #CC3162). […] On day 0, one plate was stained with 0.5% crystal violet in 20% methanol for 10 minutes, rinsed with water, and air-dried. The remaining plates were incubated for 72 h at 37° C. After 72 h, plates were stained with 0.5% crystal violet in 20% methanol, rinsed with water and air-dried. The stain was eluted with 1:1 solution of ethanol:0.1 M sodium citrate (including day 0 plate), and absorbance was measured at 540 nm with an ELISA reader (Dynatech Laboratories). Day 0 absorbance was subtracted from the 72 h plates and data was plotted as percentage of control proliferation (vehicle treated cells).

In assay [2] the test system is HUVEC. Put plainly: HUVEC cord formation assay on matrigel (NCI). It is filed as cell-based, human. The following applies: 24 h. The method, then:
Angiogenesis assays were provided by the NCI, details of the assay protocols are given below. In each assays TNP-470 and paclitaxel (Taxol®) were used as reference compounds. Matrigel (60 μL of 10 mg/mL; Collaborative Lab #35423) was placed in each well of an ice-cold 96-well plate. The plate was allowed to sit at room temperature for 15 minutes then it was incubated at 37° C. for 30 minutes to permit the matrigel to polymerize. In the mean time, HUVEC were prepared in EGM-2 (Clonetic #CC3162) at a concentration of 2×10^5 cells/mL. […] The cells (500 μL) and the drug at 2 times concentration (500 μL) were mixed and 200 μL of this suspension was placed in duplicate on the polymerized matrigel. After 24 h incubation, triplicate pictures were taken for each concentration using a Bioquant Image Analysis system. Drug effect (IC50) is assessed compared to untreated controls by measuring the length of cords formed and number of junctions.

The subject of assay [3] is HUVEC. Put plainly: HUVEC cell migration (chemotaxis) assay, Boyden chamber (NCI). It counts as cell-based, human. The following applies: 5 h. As to the method: Angiogenesis assays were provided by the NCI, details of the assay protocols are given below. In each assays TNP-470 and paclitaxel (Taxol®) were used as reference compounds. Migration was assessed using the 48-well Boyden chamber and 8 μm pore size collagen-coated (10 μg/mL rat tail collagen; Collaborative Laboratories) polycarbonate filters (Osmonics, Inc.). The bottom chamber wells received 27-29 μL of DMEM medium alone (baseline) or medium containing chemo-attractant (bFGF, VEGF or Swiss 3T3 cell conditioned medium). The top chambers received 45 μL of HUVEC cell suspension (1×10^6 cells/mL) prepared in DMEM+1% BSA with or without test compound. After 5 h incubation at 37° C., the membrane was rinsed in PBS, fixed and stained in Diff-Quick solutions. The filter was placed on a glass slide with the migrated cells facing down and cells on top were removed using a Kimwipe. The testing was performed in 4-6 replicates and five fields were counted from each well. Negative, unstimulated, control values were subtracted from stimulated control and drug treated values and data was plotted as mean migrated cell±S.D. The IC50 was calculated from the plotted data.

A further assay addresses T1, FBP21 (Homo sapiens, UniProt O75554).
T1 construct: encode 99 amino acids in frame with the phage coat protein of which a segment of 83 residues share 100% homology with FBP21; purchased Novagen; host or cells: T7 phage amplified in E. coli BLT5403
T1 sequence (O75554 with tags, fused parts or gaps): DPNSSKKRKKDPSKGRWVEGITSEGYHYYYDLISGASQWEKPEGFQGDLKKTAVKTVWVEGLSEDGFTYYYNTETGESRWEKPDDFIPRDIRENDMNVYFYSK
Put plainly: Phage display biopanning with biotinylated bait, Human Colon Tumour Library. The conditions noted are these: SDS and E. coli elution. It counts as binding. The method, then: Streptavidin wells were incubated with 1 μM biotinylated probe at 4° C. overnight to prepare the wells for biopanning. After incubation, unbound biotinylated probe was removed from the well by washing with phosphate buffered saline (PBS). Wells were then blocked with blocking solution (3% skimmed milk in PBS) for at least one hour at room temperature. Blocked wells were then briefly washed with PBS and were ready for biopanning use. […] In the first round of biopanning, 0.15 mL of amplified phage library was added to an empty streptavidin coated well and incubated at room temperature for at least 1 hour. This step was included to deselect any phage displaying streptavidin binding proteins. After incubation, the phage were removed from the well and mixed with 50 μL 4× blocking solution (12% skimmed milk in PBS) and incubated at room temperature for at least one hour. 0.125 mL of blocked phage library was added to each pre-prepared biotinylated well and incubated at room temperature for at least one hour. […] After incubation, unbound phage were removed from the well with wash solution. The wash solution was varied depending on the round of biopanning. For first round of biopanning PBS1 was used. For subsequent rounds the stringency of the wash was increased by using sequentially PBS2, PBS3 and PBS4 (see Table I). […]

Assay [4] relates to Lewis lung adenocarcinoma. The conditions noted are these: rats, intraperitoneal and per os, subtoxic doses; cited from earlier work.
Assay [5] deals with mouse colon adenocarcinoma cells. The following applies: subtoxic dose, colon 38 spleen liver model; cited from earlier work.
In assay [6] the test system is endothelial cell proliferation and endothelial capillary formation. The following applies: cited from earlier work.

As a reminder, the IC50 is the midpoint of a concentration-inhibition curve. Higher therefore signals weaker potency.

Regarding pre-borrelidin, the IC50 with HUVEC [1] was 2380 nM; in the assay on HUVEC [2], greater than 30000 nM; with HUVEC [3] it was 461 nM. Further, on FBP21, the “identification of FBP21 fragment by biopanning (binding)” value is recorded as “never identified”.

For the compound `CC1CC(C)CC(C)C(O)CC(=O)OC(C2CCCC2C(=O)NCc2cccnc2)C(C#N)=CC=CCC(O)C(C)C1` (stereo not shown) [borrelidin-(3-picolylamide)], the increase of micrometastases result in assay [4] is “inhibit very considerably”. Also, the “metastasis-forming ability of mouse colon adenocarcinoma cells transplanted into mouse spleen” value in assay [5] is “considerably decreased”.

Turning to `C[C@@H]1C[C@H](C)C[C@H](C)[C@@H](O)CC(=O)O[C@H]([C@@H]2CCC[C@H]2C(=O)NCCN2CCOCC2)C/C=C/C=C(/C#N)[C@H](O)[C@@H](C)C1` [borrelidin-morpholinoethyl amide], in assay [6], the “selectivity index, capillary formation inhibitory activity versus cell proliferation with respect to borrelidin” value is listed as 6 fold.

For the compound `CC1CC(C)CC(C)C(O)C(C#N)=CC=CCC(C2CCCC2C(=O)OCCc2ccccn2)OC(=O)CC(O)C(C)C1` (stereo not shown) [borrelidin-(2-pyridyl)-ethyl ester], the “selectivity index, capillary formation inhibitory activity versus cell proliferation with respect to borrelidin” value in assay [6] is 7.5 fold.

Turning to `C[C@@H]1C[C@H](C)C[C@H](C)[C@@H](O)CC(=O)O[C@H]([C@@H]2CCC[C@H]2C(=O)OCCN2CCOCC2)C/C=C/C=C(/C#N)[C@H](O)[C@@H](C)C1` [borrelidin-morpholinoethyl ester], the “selectivity index, capillary formation inhibitory activity versus cell proliferation with respect to borrelidin” value in assay [6] was 60 fold.

For borrelidin-amide, the “selectivity index, capillary formation inhibitory activity versus cell proliferation with respect to borrelidin” value in assay [6] was 37 fold.

For `CC(=O)O[C@H]1C(=O)[C@@]2(C)[C@H]([C@H](OC(=O)c3ccccc3)[C@]3(O)C[C@H](OC(=O)[C@H](O)[C@@H](NC(=O)c4ccccc4)c4ccccc4)C(C)=C1C3(C)C)[C@]1(OC(C)=O)CO[C@@H]1C[C@@H]2O` [Taxol, paclitaxel], the IC50 in the assay on HUVEC [1] (Homo sapiens) is 1.65 ± 0.12 nM; in the assay with HUVEC [2] (Homo sapiens) it was 50 nM; in the assay with HUVEC [3] (Homo sapiens), 100 nM.

As for `CO[C@@H]1[C@H](OC(=O)NC(=O)CCl)CC[C@]2(CO2)[C@H]1[C@@]1(C)O[C@@H]1CC=C(C)C` [TNP470], the IC50 with HUVEC [1] (Homo sapiens) is 3.16 ± 0.82 nM; with HUVEC [2] (Homo sapiens) it was 1000 nM; in the assay on HUVEC [3] (Homo sapiens), 500 nM.

Source of the values: patent US20110027185A1, “Methods of Screening for Anti-Angiogenic Compounds” (priority 2007, published 2011).
